Measurements: patent US11685741B2, “Fluorescent probes” (University of Massachusetts, priority 2017, dated 2023)
“And” between values parts separate entries of the source, which are not always exact repeats. Identical values can stand only once. “Also recorded” adds a separate entry of the source.

Tests used:
[1] = system: Bovine aortic endothelial cells (BAEC); assay: Confocal imaging of Fe3+ with RhHPA in BAEC cells; assay type: cell-based
Method: Primary cultured Bovine aortic endothelial cells (BAEC) were passaged in Endothelial Basal Medium (Lonza) containing 5% fetal bovine serum. Before the experiment, the cells were cultured to about 8th generation. For experiment preparation, the cells were routinely subcultured using 0.05% trypsin-EDTA solution. The cells were seeded on the 25 cm^2 flask and medium change every two days until a 70% confluency before transferring into disks. The cells were seeded on the 1 cm^2 disk and a medium change the next day.
To evaluate the ability of RhHPA to capture Fe^3+ ions in cells, BAEC cells were incubated with the sensor (10 μM) for 30 min.
BAEC cells were incubated with 10 μM of ferric chloride (FeCl3) at 37° C. for overnight, then 10 μM of RhHPA was added to BAEC cells and was incubated at 37° C. for 30 min.
For the second control experiment, an Fe^3+-chelator SIH was added to iron-loaded and non-iron-loaded cells with RhHPA.
BAEC cells (without Fe^3+ treatment) were treated with RhHPA, MitoTracker Green FM and LysoTracker blue DND-22. As shown in FIG. 20A to FIG. 20H, there are partial colocalization between RhHPA-Fe^3+ and the MitoTracker (FIG. 20E) as well as that between RhHPA-Fe^3+ and the LysoTracker (FIG. 20F); however, a […] colocalization was observed among RhHPA-Fe^3+, MitoTracker and LysoTracker (FIG. 20G).

[2] = Metal ion sensing: UV-vis and fluorescence response to Fe3+ and other metal ions; settings: one equivalent Fe^3+, ACN/Tris-HCl buffer pH 7.3
Method: The spectroscopic properties of Rh-PK and its interactions with various metal ions were evaluated in acetonitrile (ACN)/Tris-HCl buffer (10 mM, pH 7.3, v/v, 3:1). […] The changes in UV-Vis spectra after the addition of various ions are shown in FIG. 2, which is an absorbance spectrum of 100 μM sensor with various metal ions (100 μM for Ni^+2, Cu^+, Cu^+2, Zn^+2, Pb, Fe^+2, Fe^+3, Cr^+3, Hg^+2, Mn^+2, Ag^+, and Co^+2; 200 μM for K^+, Na^+, Ca^2+ and Mg^2+) in the ACN/Tris buffer (10 mM, pH 7.3, v/v 3:1).
When Fe^3+ was added into the solution of Rh-PK, a significant enhancement of fluorescence (>12-fold with 1.0 equiv of Fe^3+) was observed.
The interferences from the other metal ions with Rh-PK in its response to Fe^3+ was examined. […] Each of the 12 metal ions was pre-incubated with Rh-PK before 1 equiv. of Fe^3+ was added, the fluorescence response was then measured.
The stock solution of sensor and metal ions were prepared at the concentration of 1 mM. M. P. Walkees, Mutat. Res., 2003, 533, 107; M. Waisberg, et al., Toxicology, 2003, 192, 95.
The UV-vis. and fluorescence spectra of RhHPA to various possible interfering metal ions and its selectivity for Fe^3+ were examined. See FIG. 6, which is a plot of absorbance dependent on the concentration of Fe^3+ in the range from 0 to 2 equivalents in ACN/Tris-HCl buffer (10 mM, pH 7.3, v/v 2:1); FIG. 7, which is a Job's plot between Fe^3+ and RhHPA, indicating the 1:1 binding mode for sensor and iron(III). […] Addition of Na^+, K^+, Ca^2+, Mg^2+, Cr^3+, […], Hg^2+, Cu^2+, Pb^2+, Zn^2+, Fe^2+, Co^2+, Ni^2+, and Ag^+ exerted little or no effect on the emission of RhHPA, while remarkable fluorescence enhancement was detected upon the addition of Fe^3+ by excitation of the rhodamine fluorophore at 535 nm.
Experiments of iron(III) with other metal ions were investigated by means of the fluorescence response of RhHPA toward Fe^3+ in the presence of various other metal ions such as Na^+, K^+, Ca^2+, Mg^2+, Cr^3+, Hg^2+, Cu^2+, Pb^2+, Zn^2+, Fe^2+, Co^2+, Ni^2+, Cd^2+, and Ag^+. […] for Fe^3+ had no changes with addition of other metal ions. Cu(II) and Zn(II) increased the fluorescence intensity slightly.

[3] = Binding studies of sensor with Fe3+ (Job's plot, titration, EDTA reversibility); settings: 1:1 sensor-Fe^3+ complex; ACN/Tris-HCl buffer pH 7.3
Method: Job's method and UV-vis spectra were applied to study the binding stoichiometry between Rh-PK and Fe^3+ and monitored by the absorbance at 555 nm. […] The binding constant of this complex was calculated following a method reported previously (G. E. Tumambac, et al., Tetrahedron 2004, 60, 11293-11297), using absorption values at […] by the equations described below, and was determined to be 1.54×10^7 […].
The equations below was used to calculate the binding constants with stoichiometry of 1:1. L+S↔LS where L=sensor, S=Fe3+ and LS=sensor-Fe^3+ complex. The apparent binding constant is given by
[formula] Fe is the fraction of L that formed a complex, [LS]e is concentration at equilibrium, [L]0 is the initial concentration. Au, Am, and Ac are the absorbances of solutions of L (before any Fe^3+ was added), during the titration and at saturation, respectively. The concentration of free Fe^3+ at equilibrium, [S]e, is found with the following identity. [S]e=[S]o−[LS]e=[S]o−Fc[L]o The apparent binding constant K can then be calculated from
Reversibility experiments were carried out by adding EDTA to the complex in ACN/Tris-HCl buffer (10 mM, pH 7.3, v/v 3:1). […]
The stoichiometry of RhHPA-Fe^3+ was measured using Job's plot and mole ratio plots methods. B. Valeur, Molecular Fluorescence: Principles and Applications, Wiley-VCH. […] To determine the binding constant of chemosensor, a fluorescence titration of different amounts of Fe^3+ into the acetonitrile solution of sensor was carried out. […] The determination of the binding constant of RhHPA was calculated using the following equation: F−Fmin=[…](Fmax−Fmin)/Kd where F is the observed fluorescence, Fmax is the maximum fluorescence for the RhHPA-Fe^3+ complex at concentration of the equal reacted between sensor and metal cation, Fmin is the fluorescence intensity for occurring RhHPA-Fe^3+.
Absorption enhancement observation at 558 nm was plotted against the molar value of the [Fe^3+]/[Fe^3+]+RhHPA and [Fe^3+]/RhHPA. […] Binding constant of fluorescent sensor “RhHPA” was calculated and it was found as K=1.27×10^7 M^−1. […]

[4] = Effect of pH on fluorescence of sensor and its Fe complex; assay type: physicochemical; settings: pH adjusted with HCl/NaOH
[5] = system: cells in the culture experiments; assay: Cell permeability and toxicity in the culture experiments; assay type: cell-based

Q: For `CCN(CC)c1ccc2c(c1)Oc1cc(N(CC)CC)ccc1C21c2ccccc2C(=O)N1/N=C/c1cccc(CO)n1` [RhHPA, (E)-3′,6′-bis(diethylamino)-2-(((6-(hydroxymethyl)pyridin-2-yl)methylene)amino)spiro[isoindoline-1,9′-xanthen]-3-one], which “increase in fluorescent intensity in Fe^3+-treated cells” value ([1]; 10 μM FeCl3 overnight, then 10 μM RhHPA 30 min) is on record?
A: ~8 fold

Q: And the “fluorescence enhancement in cells” value ([1]; 10 μM sensor, 30 min, no Fe^3+ supplementation)?
A: 4 fold

Q: What about the “change in fluorescence signal, Fe^3+ then chelator” value ([1]; 20 μM Fe^3+ overnight, then 100 μM SIH, then 10 μM RhHPA, versus Fe(III) supplement) of the same compound?
A: large decrease in fluorescence signal

Q: What about the “change in fluorescence signal with chelator” value ([1]; 100 μM SIH, non-iron-loaded cells) of the same compound?
A: small decrease in fluorescence signal

Q: And the “increase in fluorescence emission intensity” value [2]?
A: ~20 fold

Q: What about the apparent binding constant [3] of the same compound?
A: 1.27e+07 M⁻¹

Q: What about the “pH range over which sensor (and Fe complex) fluorescence is stable / working pH range” value [4] of the same compound?
A: 5-9 and 5 to 9

Q: What about the toxicity for cells ([5]; culture experiments) of the same compound?
A: non-toxic

Q: What about the cell permeability ([5]; live cells in culture) of the same compound?
A: excellent cell permeability; also recorded: cell permeable
